Measured values taken from PubChem BioAssay (NCI).
Converted amounts (≈) assume the structure as drawn. “And” between values parts separate entries of the source, which are not always exact repeats. Equal values may be shown once.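 48-hour exposure; five concentrations; linearly interpolated endpoints. GI50: concentration for 50% inhibition of growth. The concentration for full growth arrest is given as TGI.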

What was measured:
Assay in all cases: NCI anticancer screen, dose series, 48 h
MDA-N = system: MDA-N
SK-OV-3 ovarian = system: SK-OV-3 ovarian
UO-31 renal = system: UO-31 renal
NCI-H226 lung = system: NCI-H226 lung
A549 NSCLC = system: A549 NSCLC
T-47D breast = system: T-47D breast
RXF 393 renal = system: RXF 393 renal
K-562 leukemia = system: K-562 leukemia
SNB-75 CNS = system: SNB-75 CNS
CCRF-CEM leukemia = system: CCRF-CEM leukemia
SF-268 CNS = system: SF-268 CNS
HL-60(TB) leukemia = system: HL-60(TB) leukemia
U251 CNS = system: U251 CNS
SF-539 CNS = system: SF-539 CNS
SNB-19 CNS = system: SNB-19 CNS
MALME-3M melanoma = system: MALME-3M melanoma
KM12 colon = system: KM12 colon
A498 renal = system: A498 renal
BT-549 breast = system: BT-549 breast
COLO 205 colon = system: COLO 205 colon
EKVX NSCLC = system: EKVX NSCLC
SW-620 colon = system: SW-620 colon
HT29 colon = system: HT29 colon
UACC-62 melanoma = system: UACC-62 melanoma
OVCAR-3 ovarian = system: OVCAR-3 ovarian
SR leukemia = system: SR leukemia
NCI-H460 lung = system: NCI-H460 lung
786-0 renal = system: 786-0 renal
HS 578T breast = system: HS 578T breast
LOX IMVI melanoma = system: LOX IMVI melanoma
OVCAR-4 ovarian = system: OVCAR-4 ovarian
CAKI-1 renal = system: CAKI-1 renal
UACC-257 melanoma = system: UACC-257 melanoma
HCC-2998 colon = system: HCC-2998 colon
SF-295 CNS = system: SF-295 CNS
HOP-92 NSCLC = system: HOP-92 NSCLC
IGROV1 ovarian = system: IGROV1 ovarian
MCF7 breast = system: MCF7 breast
SK-MEL-5 melanoma = system: SK-MEL-5 melanoma
HCT-15 colon = system: HCT-15 colon
HOP-62 NSCLC = system: HOP-62 NSCLC
RPMI-8226 leukemia = system: RPMI-8226 leukemia
MDA-MB-435 = system: MDA-MB-435
OVCAR-8 ovarian = system: OVCAR-8 ovarian
PC-3 prostate = system: PC-3 prostate
DU-145 prostate = system: DU-145 prostate
NCI-H522 lung = system: NCI-H522 lung
NCI/ADR-RES ovarian = system: NCI/ADR-RES ovarian
OVCAR-5 ovarian = system: OVCAR-5 ovarian
SN12C renal = system: SN12C renal
SK-MEL-2 melanoma = system: SK-MEL-2 melanoma
MDA-MB-231 breast = system: MDA-MB-231 breast
HCT-116 colon = system: HCT-116 colon
MOLT-4 leukemia = system: MOLT-4 leukemia
TK-10 renal = system: TK-10 renal
SK-MEL-28 melanoma = system: SK-MEL-28 melanoma
ACHN renal = system: ACHN renal
NCI-H23 lung = system: NCI-H23 lung
M14 melanoma = system: M14 melanoma

For `CC1(C)CC(=O)C2=C(C1)NC(SSC1=C(C#N)C(c3ccc(Br)cc3)C3=C(CC(C)(C)CC3=O)N1)=C(C#N)C2c1ccc(Br)cc1` (stereo not drawn), the GI50 (MDA-N) was 45.9 µg/mL (≈ 59.1 µM), the TGI (MDA-N) was > 100 µM and 150 µg/mL and the GI50 (SK-OV-3 ovarian) was over 150 µg/mL. For the same compound, the TGI (SK-OV-3 ovarian) was > 100 µM and 150 µg/mL, the GI50 (UO-31 renal) was 76.3 µg/mL (≈ 98.3 µM) and the TGI (UO-31 renal) was > 100 µM and 150 µg/mL. For the same compound, the GI50 (NCI-H226 lung) was over 150 µg/mL, the TGI (NCI-H226 lung) was > 100 µM and 150 µg/mL and the GI50 (A549 NSCLC) was over 150 µg/mL. The TGI (A549 NSCLC) was > 100 µM and 150 µg/mL, the GI50 (T-47D breast) was 35 µg/mL (≈ 45.1 µM) and the TGI (T-47D breast) was > 100 µM and 119 µg/mL. For the same compound, the GI50 (RXF 393 renal) was 41.6 µg/mL (≈ 53.5 µM), the TGI (RXF 393 renal) was > 100 µM and 123 µg/mL and the GI50 (K-562 leukemia) was 30.8 µg/mL (≈ 39.7 µM). For the same compound, the TGI (K-562 leukemia) was > 100 µM and 76.4 µg/mL, the GI50 (SNB-75 CNS) was over 150 µg/mL and the TGI (SNB-75 CNS) was 150 µg/mL (≈ 193 µM). The GI50 (CCRF-CEM leukemia) was 34.3 µg/mL (≈ 44.2 µM), the TGI (CCRF-CEM leukemia) was > 100 µM and 107 µg/mL and the GI50 (SF-268 CNS) was over 150 µg/mL. The TGI (SF-268 CNS) was > 100 µM and 150 µg/mL, the GI50 (HL-60(TB) leukemia) was 31.2 µg/mL (≈ 40.2 µM) and the TGI (HL-60(TB) leukemia) was > 100 µM and 77.1 µg/mL. For the same compound, the GI50 (U251 CNS) was over 150 µg/mL, the TGI (U251 CNS) was > 100 µM and 150 µg/mL and the GI50 (SF-539 CNS) was over 150 µg/mL. For the same compound, the TGI (SF-539 CNS) was > 100 µM and 150 µg/mL, the GI50 (SNB-19 CNS) was over 150 µg/mL and the TGI (SNB-19 CNS) was > 100 µM and 150 µg/mL. For the same compound, the GI50 (MALME-3M melanoma) was 35.8 µg/mL (≈ 46.1 µM), the TGI (MALME-3M melanoma) was > 100 µM and 98.7 µg/mL and the GI50 (KM12 colon) was over 150 µg/mL. The TGI (KM12 colon) was > 100 µM and 150 µg/mL, the GI50 (A498 renal) was over 150 µg/mL and the TGI (A498 renal) was > 100 µM and 150 µg/mL. For the same compound, the GI50 (BT-549 breast) was 28.1 µg/mL (≈ 36.2 µM), the TGI (BT-549 breast) was > 100 µM and 52 µg/mL and the GI50 (COLO 205 colon) was over 150 µg/mL. For the same compound, the TGI (COLO 205 colon) was > 100 µM and 150 µg/mL, the GI50 (EKVX NSCLC) was over 150 µg/mL and the TGI (EKVX NSCLC) was > 100 µM and 150 µg/mL. For the same compound, the GI50 (SW-620 colon) was 29.3 µg/mL (≈ 37.7 µM), the TGI (SW-620 colon) was > 100 µM and 56.1 µg/mL and the GI50 (HT29 colon) was over 150 µg/mL. The TGI (HT29 colon) was > 100 µM and 150 µg/mL, the GI50 (UACC-62 melanoma) was 122 µg/mL (≈ 157 µM) and the TGI (UACC-62 melanoma) was > 100 µM and 150 µg/mL. For the same compound, the GI50 (OVCAR-3 ovarian) was over 150 µg/mL, the TGI (OVCAR-3 ovarian) was > 100 µM and 150 µg/mL and the GI50 (SR leukemia) was 22.8 µg/mL (≈ 29.4 µM). For the same compound, the TGI (SR leukemia) was > 100 µM and 66.2 µg/mL, the GI50 (NCI-H460 lung) was over 150 µg/mL and the TGI (NCI-H460 lung) was > 100 µM and 150 µg/mL. The GI50 (786-0 renal) was 53.8 µg/mL (≈ 69.2 µM), the TGI (786-0 renal) was > 100 µM and 150 µg/mL and the GI50 (HS 578T breast) was 43.5 µg/mL (≈ 56 µM). The TGI (HS 578T breast) was > 100 µM and 150 µg/mL, the GI50 (LOX IMVI melanoma) was 22.9 µg/mL (≈ 29.4 µM) and the TGI (LOX IMVI melanoma) was > 100 µM and 46.6 µg/mL. The GI50 (OVCAR-4 ovarian) was 34.4 µg/mL (≈ 44.2 µM), the TGI (OVCAR-4 ovarian) was > 100 µM and 84.8 µg/mL and the GI50 (CAKI-1 renal) was over 150 µg/mL. The TGI (CAKI-1 renal) was > 100 µM and 150 µg/mL, the GI50 (UACC-257 melanoma) was over 150 µg/mL and the TGI (UACC-257 melanoma) was > 100 µM and 150 µg/mL. It also gave a GI50 (HCC-2998 colon) of over 150 µg/mL, a TGI (HCC-2998 colon) of 150 µg/mL (≈ 193 µM) and a GI50 (SF-295 CNS) of over 150 µg/mL. The TGI (SF-295 CNS) was > 100 µM and 150 µg/mL, the GI50 (HOP-92 NSCLC) was 46.4 µg/mL (≈ 59.7 µM) and the TGI (HOP-92 NSCLC) was > 100 µM and 116 µg/mL. For the same compound, the GI50 (IGROV1 ovarian) was over 150 µg/mL, the TGI (IGROV1 ovarian) was > 100 µM and 150 µg/mL and the GI50 (MCF7 breast) was over 150 µg/mL. The TGI (MCF7 breast) was 150 µg/mL (≈ 193 µM), the GI50 (SK-MEL-5 melanoma) was over 150 µg/mL and the TGI (SK-MEL-5 melanoma) was > 100 µM and 150 µg/mL. The GI50 (HCT-15 colon) was 88.6 µg/mL (≈ 114 µM), the TGI (HCT-15 colon) was > 100 µM and 150 µg/mL and the GI50 (HOP-62 NSCLC) was over 150 µg/mL. For the same compound, the TGI (HOP-62 NSCLC) was > 100 µM and 150 µg/mL, the GI50 (RPMI-8226 leukemia) was 30.6 µg/mL (≈ 39.5 µM) and the TGI (RPMI-8226 leukemia) was > 100 µM and 79.3 µg/mL. For the same compound, the GI50 (MDA-MB-435) was 90.8 µg/mL (≈ 117 µM), the TGI (MDA-MB-435) was > 100 µM and 150 µg/mL and the GI50 (OVCAR-8 ovarian) was 48.6 µg/mL (≈ 62.5 µM). For the same compound, the TGI (OVCAR-8 ovarian) was > 100 µM and 150 µg/mL, the GI50 (PC-3 prostate) was 91.4 µg/mL (≈ 118 µM) and the TGI (PC-3 prostate) was > 100 µM and 150 µg/mL. For the same compound, the GI50 (DU-145 prostate) was over 150 µg/mL, the TGI (DU-145 prostate) was > 100 µM and 150 µg/mL and the GI50 (NCI-H522 lung) was 30 µg/mL (≈ 38.6 µM). The TGI (NCI-H522 lung) was > 100 µM and 53.5 µg/mL, the GI50 (NCI/ADR-RES ovarian) was 28.9 µg/mL (≈ 37.2 µM) and the TGI (NCI/ADR-RES ovarian) was > 100 µM and 64.1 µg/mL. The GI50 (OVCAR-5 ovarian) was over 150 µg/mL, the TGI (OVCAR-5 ovarian) was > 100 µM and 150 µg/mL and the GI50 (SN12C renal) was 71.2 µg/mL (≈ 91.7 µM). For the same compound, the TGI (SN12C renal) was > 100 µM and 150 µg/mL, the GI50 (SK-MEL-2 melanoma) was over 150 µg/mL and the TGI (SK-MEL-2 melanoma) was > 100 µM and 150 µg/mL. The GI50 (MDA-MB-231 breast) was 26.6 µg/mL (≈ 34.3 µM), the TGI (MDA-MB-231 breast) was > 100 µM and 53.5 µg/mL and the GI50 (HCT-116 colon) was 89.8 µg/mL (≈ 116 µM). For the same compound, the TGI (HCT-116 colon) was > 100 µM and 150 µg/mL, the GI50 (MOLT-4 leukemia) was 41.9 µg/mL (≈ 53.9 µM) and the TGI (MOLT-4 leukemia) was > 100 µM and 150 µg/mL. For the same compound, the GI50 (TK-10 renal) was over 150 µg/mL, the TGI (TK-10 renal) was > 100 µM and 150 µg/mL and the GI50 (SK-MEL-28 melanoma) was 48.4 µg/mL (≈ 62.3 µM). For the same compound, the TGI (SK-MEL-28 melanoma) was > 100 µM and 131 µg/mL, the GI50 (ACHN renal) was over 150 µg/mL and the TGI (ACHN renal) was > 100 µM and 150 µg/mL. The GI50 (NCI-H23 lung) was over 150 µg/mL, the TGI (NCI-H23 lung) was > 100 µM and 150 µg/mL and the GI50 (M14 melanoma) was 51.4 µg/mL (≈ 66.2 µM). The TGI (M14 melanoma) was > 100 µM and 150 µg/mL.
